The target in data set [1] is T1, hT1R2/R3 (Homo sapiens, UniProt Q7RTX0+Q8TE23).
T1 construct: expressed in transfected cells; host or cells: 'hT1R2/R3-mammalian Gal5 cells'
T1 sequence (Q8TE23 20-839): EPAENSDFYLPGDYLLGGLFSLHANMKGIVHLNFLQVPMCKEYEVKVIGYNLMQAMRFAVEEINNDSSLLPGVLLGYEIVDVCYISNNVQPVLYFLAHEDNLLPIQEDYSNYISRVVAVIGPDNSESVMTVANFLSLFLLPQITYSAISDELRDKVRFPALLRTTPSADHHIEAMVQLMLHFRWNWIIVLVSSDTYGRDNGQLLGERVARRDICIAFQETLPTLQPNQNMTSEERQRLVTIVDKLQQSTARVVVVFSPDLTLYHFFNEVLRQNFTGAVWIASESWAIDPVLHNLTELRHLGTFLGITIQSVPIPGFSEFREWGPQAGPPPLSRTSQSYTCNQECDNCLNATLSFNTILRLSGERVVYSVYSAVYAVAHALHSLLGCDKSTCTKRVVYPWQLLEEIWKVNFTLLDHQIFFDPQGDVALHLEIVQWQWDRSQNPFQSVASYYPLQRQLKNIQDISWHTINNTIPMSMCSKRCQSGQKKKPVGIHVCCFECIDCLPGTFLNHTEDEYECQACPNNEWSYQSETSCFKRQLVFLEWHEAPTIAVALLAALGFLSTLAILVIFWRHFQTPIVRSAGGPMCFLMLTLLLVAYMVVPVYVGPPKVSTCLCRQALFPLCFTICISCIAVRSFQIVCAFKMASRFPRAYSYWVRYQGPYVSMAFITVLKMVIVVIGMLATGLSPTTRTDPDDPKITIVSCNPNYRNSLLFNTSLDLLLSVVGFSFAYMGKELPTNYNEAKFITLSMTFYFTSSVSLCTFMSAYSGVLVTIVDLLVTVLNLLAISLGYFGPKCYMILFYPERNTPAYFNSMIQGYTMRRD
T1 sequence (Q7RTX0 21-852): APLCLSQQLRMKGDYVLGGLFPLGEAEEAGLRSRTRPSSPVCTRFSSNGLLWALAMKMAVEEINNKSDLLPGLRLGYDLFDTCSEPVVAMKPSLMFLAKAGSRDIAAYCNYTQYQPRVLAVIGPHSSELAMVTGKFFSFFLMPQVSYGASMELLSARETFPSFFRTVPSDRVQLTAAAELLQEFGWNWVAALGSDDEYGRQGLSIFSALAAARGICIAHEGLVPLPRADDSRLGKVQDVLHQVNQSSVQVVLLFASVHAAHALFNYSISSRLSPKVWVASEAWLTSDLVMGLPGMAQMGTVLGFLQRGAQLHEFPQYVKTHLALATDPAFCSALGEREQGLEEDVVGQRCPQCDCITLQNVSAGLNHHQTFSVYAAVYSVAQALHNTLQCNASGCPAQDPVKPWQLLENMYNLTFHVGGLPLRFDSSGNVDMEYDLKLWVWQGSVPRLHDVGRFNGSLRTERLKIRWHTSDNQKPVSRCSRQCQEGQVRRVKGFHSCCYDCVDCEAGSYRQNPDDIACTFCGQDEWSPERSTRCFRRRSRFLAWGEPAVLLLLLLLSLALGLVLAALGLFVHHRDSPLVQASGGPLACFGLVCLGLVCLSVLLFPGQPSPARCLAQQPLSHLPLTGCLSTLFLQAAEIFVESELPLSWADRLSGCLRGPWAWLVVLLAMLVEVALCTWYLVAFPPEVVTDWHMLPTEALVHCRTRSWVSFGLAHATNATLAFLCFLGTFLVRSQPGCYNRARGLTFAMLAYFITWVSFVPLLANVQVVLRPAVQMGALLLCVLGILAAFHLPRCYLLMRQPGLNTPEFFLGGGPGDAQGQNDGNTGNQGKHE
As to the kind of experiment: Screening for sweet enhancers: FLIPR calcium assay in hT1R2/R3-mammalian Gal5 cells, leftward shift of sweetener EC50. The format is cell-based. To be noted: for EC50 Ratio, Sucralose Enhancement / EC50 Ratio, Sucrose Enhancement: compound at 10 μM; for EC50 Ratio, Sucralose Enhancement: sweetener sucralose; for EC50 Ratio, Sucrose Enhancement: sweetener sucrose. The protocol: hT1R2/R3-mammalian Gal5 cells were seeded in 384-well-clear bottom plates (Fisher) at a density of ˜32,000 cells/well and grown overnight. On the day of the experiment, hT1R2/R3-mammalian Gal5 were loaded with the calcium indicator Fluo3AM ([…]) (Invitrogen, Carlsbad, Calif.) in D-PBS (Invitrogen, Carlsbad, Calif.) using a Multidrop. Cells were incubated for 1 hour at room temperature and excess dye was washed out with D-PBS using an EMBLA cell washer (Molecular Devices, Sunnyvale, Calif.), leaving a residual volume of […]. Sweeteners and test compounds were prepared at 4× final concentration and mixed 1:1 in a 384-well Greiner plate (bringing the sweeteners and test compounds concentrations down to 2× final concentration). After 30 minutes of rest time at room temperature, Fluo3AM-loaded cell plates, and the sweetener/compound plate mixture were loaded into a Fluorometric Imaging Plate Reader (FLIPR) (Molecular Devices, Sunnyvale, Calif.). Imaging was performed using a 480 nm excitation and a 535 emission and was initiated with the acquisition of the baseline fluorescence for a period of 7 seconds. Then, the cells were stimulated on line with addition of […] stimuli/well. Subsequent images were acquired every other second for a period of 2 minutes. Raw fluorescence counts were then normalized in each well (using custom made data import software) by calculating delta F/f values (maximum fluorescent count obtained after stimulation−minimal fluorescent count obtained before stimulation/minimal fluorescent count obtained before stimulation). EC50s were determined using a non-linear regression algorithm (GraphPad PRISM, San Diego, Calif.), where the Hill slope, bottom asymptotes and top asymptotes were allow to vary. Enhancement properties of test compounds were quantified by determining the magnitude of the leftward shift in the sweeteners EC50 values (or an EC50 ratio): the value of the EC50 measured in the absence of the enhancer divided by the value of the EC50 measured in the presence of the enhancer).
The present compounds have been tested and shown sweet taste enhancing activities for sucrose, sucralose, and/or fructose as shown in Table E (EC50 ratio for sucrose at about 10 μM), Table F (EC50 ratio for sucralose at about 10 μM), and Table H (EC50 ratio for fructose at about 50 µM). […] The compounds listed in Tables E, F and H are Examples described above. For example, Compound C6 listed in Tables E and F is Example 18 described above.

In turn, `Cc1nc2cccc(OCC(C)(C)C(=O)NC3CC3)c2c(N)c1C(=O)O` [Example 2, 4-amino-5-(3-(cyclopropylamino)-2,2-dimethyl-3-oxopropoxy)-2-methyl-quinoline-3-carboxylic acid] had a melting point of 227 to 229 °C.

As to `CNC(=O)[C@H]1CC[C@H](Oc2cccc3nc(C)c(C(=O)O)c(N)c23)CC1` [Example 22, 4-amino-2-methyl-5-(((1,4)-trans-4-(methylcarbamoyl)cyclohexyl)oxy)quinoline-3-carboxylic acid], the melting point fell in the range of 195 to 198 °C.

As for `Cc1nc2cccc(OCC(C)(C)NC(=O)C(C)C)c2c(N)c1C(=O)O` [Example 6, 4-amino-5-(2-isobutyramido-2-methylpropoxy)-2-methylquinoline-3-carboxylic acid], the melting point was 184 to 186 °C.

`Cc1nc2cccc(OCC(C)(C)NC(=O)CC3CCOCC3)c2c(N)c1C(=O)O` [Example 13, 4-amino-2-methyl-5-(2-methyl-2-(2-(tetrahydro-2H-pyran-4-yl)acetamido)-propoxy)quinoline-3-carboxylic acid] displayed a melting point of 175 to 178 °C.

`Cc1nc2cccc(OCC(C)(C)NC(=O)CN3CCOCC3)c2c(N)c1C(=O)O` [Example 17, 4-amino-2-methyl-5-(2-methyl-2-(2-morpholinoacetamido)propoxy)quinoline-3-carboxylic acid] yielded a melting point of 173 to 175 °C.

With `CCNC(=O)C(C)(C)COc1cccc2nc(C)c(C(=O)O)c(N)c12` [Example 12, 4-amino-5-(3-(ethylamino)-2,2-dimethyl-3-oxopropoxy)-2-methylquinoline-3-carboxylic acid], the melting point was in the range of 168 to 170 °C.

For `Cc1nc2cccc(OCC(C)(C)NC(=O)C3CCOCC3)c2c(N)c1C(=O)O` [Example 7, 4-amino-2-methyl-5-(2-methyl-2-(tetrahydro-2H-pyran-4-carboxamido)-propoxy)quinoline-3-carboxylic acid], the melting point lay within 170 to 173 °C.

Consider `Cc1nc2cccc(OCC(C)(C)NC(=O)CC(C)C)c2c(N)c1C(=O)O` [Compound O5], for which, in data set [1], the “EC50 Ratio, Sucralose Enhancement” value is listed as 4.3 and the “EC50 Ratio, Sucrose Enhancement” value was 6.0. In addition, in data set [1] (compound at 50 μM, sweetener fructose), the “EC50 Ratio, Fructose Enhancement” value is 2.6.

For the compound `Cc1nc2cccc(OCC(C)(C)NC(=O)C3CCC3)c2c(N)c1C(=O)O` [Example 9, 4-amino-5-(2-(cyclobutanecarboxamido)-2-methylpropoxy)-2-methylquino-line-3-carboxylic acid], the melting point was 186 to 190 °C.

As to `Cc1nc2cccc(OCC(C)(C)C(=O)NCC3CCC3)c2c(N)c1C(=O)O` [Example 19, 4-amino-5-(3-((cyclobutylmethyl)amino)-2,2-dimethyl-3-oxopropoxy)-2-methylquinoline-3-carboxylic acid], the melting point is 170 to 172 °C.

As to `Cc1nc2cccc(O[C@H]3CC[C@H](NC(=O)C(C)C)CC3)c2c(N)c1C(=O)O` [Example 4, 4-amino-5-(((1,4)-trans-4-isobutyramidocyclohexyl)oxy)-2-methylquinoline-3-carboxylic acid], the melting point is 183 to 185 °C.

`Cc1nc2cccc(OCC(C)(C)C(=O)NCC3CC3)c2c(N)c1C(=O)O` [Example 14, 4-amino-5-(3-((cyclopropylmethyl)amino)-2,2-dimethyl-3-oxopropoxy)-2-methylquinoline-3-carboxylic acid]: the melting point lay in the range of 177 to 179 °C.

On to `CCC(=O)N1CCC(COc2cccc3nc(C)c(C(=O)O)c(N)c23)CC1` [Example 21, 4-amino-2-methyl-5-((1-propionylpiperidin-4-yl)methoxy)quinoline-3-carboxylic acid], for which the melting point lay within 168 to 170 °C.

The compound `Cc1nc2cccc(OC3CCN(C(=O)C(C)C)CC3)c2c(N)c1C(=O)O` [Example 10, 4-amino-5-((1-isobutyrylpiperidin-4-yl)oxy)-2-methylquinoline-3-carboxylic acid] had a melting point of 184 to 186 °C.

`CCC(=O)NC(C)(C)COc1cccc2nc(C)c(C(=O)O)c(N)c12` [Example 8, 4-amino-2-methyl-5-(2-methyl-2-propionamidopropoxy)quinoline-3-carboxylic acid]: the melting point lay in the range of 189 to 193 °C.

With `Cc1nc2cccc(OCC(C)(C)NC(=O)CC(C)C)c2c(N)c1C(=O)O` [Example 5, 4-amino-2-methyl-5-(2-methyl-2-(3-methylbutanamido)propoxy)quinoline-3-carboxylic acid], the melting point lay in the range of 195 to 198 °C.

`CCC(CC)NC(=O)C(C)(C)COc1cccc2nc(C)c(C(=O)O)c(N)c12` [Example 16, 4-amino-5-(2,2-dimethyl-3-oxo-3-(pentan-3-ylamino)propoxy)-2-methyl-quinoline-3-carboxylic acid] displayed a melting point of 172 to 174 °C.

Take `Cc1nc2cccc(OCC(C)(C)C(=O)NCC(C)C)c2c(N)c1C(=O)O` [Compound C6, 4-amino-5-(3-(isobutylamino)-2,2-dimethyl-3-oxopropoxy)-2-methylquino-line-3-carboxylic acid]: the melting point lay in the range of 176 to 179 °C. Also, in data set [1], the “EC50 Ratio, Sucralose Enhancement” value was found to be 3.8 and the “EC50 Ratio, Sucrose Enhancement” value stood at 11.0.

For `Cc1nc2cccc(OCC(C)(C)C(=O)NC3CCC3)c2c(N)c1C(=O)O` [Example 3, 4-amino-5-(3-(cyclobutylamino)-2,2-dimethyl-3-oxopropoxy)-2-methylquino-line-3-carboxylic acid], the melting point was 183 to 187 °C.

`CCCCNC(=O)C(C)(C)COc1cccc2nc(C)c(C(=O)O)c(N)c12` [Example 15, 4-amino-5-(3-(butylamino)-2,2-dimethyl-3-oxopropoxy)-2-methylquinoline-3-carboxylic acid] had a melting point of 195 to 199 °C.
